In patent publication US20240254119A1 (THIRD HARMONIC BIO, INC., priority 2022, published 2024):

target: T1, wtKIT (Homo sapiens, UniProt P10721); assay: HTRF biochemical assay, wtKIT (phosphorylation of a peptide substrate); conditions: Table 4
T1 construct: 1888289AM in the reaction mixtures
Procedure, shortened: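 wtKIT (5.0 nM) phosphorylating 1 µM FAM-labelled peptide with 400 µM ATP and 10 mM MnCl2 in 100 mM HEPES pH 7.5, 1% DMSO, 3 h at 25 °C. EDTA quench; phosphopeptide detected with anti-phosphotyrosine antibody by HTRF. Enzyme titrated for 10-20% substrate conversion.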

T1 sequence (P10721 26-976): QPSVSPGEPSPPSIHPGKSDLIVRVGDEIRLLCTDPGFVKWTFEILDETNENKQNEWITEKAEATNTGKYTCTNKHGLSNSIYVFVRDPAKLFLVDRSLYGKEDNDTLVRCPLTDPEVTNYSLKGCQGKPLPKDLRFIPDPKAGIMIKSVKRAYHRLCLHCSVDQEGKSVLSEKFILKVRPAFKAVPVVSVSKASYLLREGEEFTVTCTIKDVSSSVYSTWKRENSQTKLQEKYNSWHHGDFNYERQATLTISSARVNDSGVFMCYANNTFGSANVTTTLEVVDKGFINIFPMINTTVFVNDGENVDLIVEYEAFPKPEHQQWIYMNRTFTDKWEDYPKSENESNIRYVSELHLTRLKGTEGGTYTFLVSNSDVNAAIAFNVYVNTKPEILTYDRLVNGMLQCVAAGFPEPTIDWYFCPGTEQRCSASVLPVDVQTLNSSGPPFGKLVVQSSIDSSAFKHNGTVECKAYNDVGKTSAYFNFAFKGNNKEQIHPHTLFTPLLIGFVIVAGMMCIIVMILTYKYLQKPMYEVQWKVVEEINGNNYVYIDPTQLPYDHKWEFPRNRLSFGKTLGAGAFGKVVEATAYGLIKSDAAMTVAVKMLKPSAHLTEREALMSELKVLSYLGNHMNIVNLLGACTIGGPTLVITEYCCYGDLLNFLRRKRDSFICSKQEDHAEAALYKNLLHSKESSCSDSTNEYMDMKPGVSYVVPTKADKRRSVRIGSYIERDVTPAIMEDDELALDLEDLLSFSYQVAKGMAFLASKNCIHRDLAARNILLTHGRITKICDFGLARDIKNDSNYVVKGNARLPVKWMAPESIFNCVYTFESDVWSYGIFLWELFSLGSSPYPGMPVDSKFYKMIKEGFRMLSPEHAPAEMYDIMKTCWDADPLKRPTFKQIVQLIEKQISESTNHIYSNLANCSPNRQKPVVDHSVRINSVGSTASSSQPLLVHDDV

Row | Structure (SMILES) | IC50 [µM]
1 | Cc1ccc(-c2noc(N3CC(F)(F)C3)n2)nc1NC(=O)c1cnc2ccccn12 [Compound I-711] | 0.05 to 0.5
2 | CCc1nc(-c2ccc(C)c(NC(=O)c3cnn4cc(-c5ccn(C)n5)ccc34)c2)no1 [Compound I-722] | ≤ 0.05
3 | Cc1ccc(-c2noc(-c3cccnc3)n2)cc1NC(=O)c1cnn2cc(-c3ccn(C)n3)ccc12 [Compound I-723] | ≤ 0.05
4 | Cc1ccc(-c2ncon2)cc1NC(=O)c1cnn2cc(-c3ccn(C)n3)ccc12 [Compound I-729] | ≤ 0.05
5 | Cc1ccc(-c2noc(C(C)O)n2)cc1NC(=O)c1cnn2cc(-c3ccn(C)n3)ccc12 (stereo not shown) [Compound I-730] | ≤ 0.05

Next, values leading:

Row | IC50 [µM] | Structure (SMILES)
6 | 0.05 to 0.5 | Cc1ccc(-c2noc(-c3cccnc3)n2)cc1NC(=O)c1cnc2cc(COCCO)ccn12 [Compound I-708]
7 | 0.05 to 0.5 | Cc1ccc(-c2ncon2)cc1NC(=O)c1cnc2cc(N3CCCCC3)ccn12 [Compound I-712]
8 | ≤ 0.05 | Cc1ccc(-c2ncon2)cc1NC(=O)c1cnc2cc(N3CCOCC3)ccn12 [Compound I-717]
9 | ≤ 0.05 | Cc1ccc(-c2ncon2)cc1NC(=O)c1cnc2cc(N(C)C)ccn12 [Compound I-718]
10 | ≤ 0.05 | Cc1ccc(-c2noc(-c3ccccc3)n2)cc1NC(=O)c1cnc2cc(COCCO)ccn12 [Compound I-719]
11 | ≤ 0.05 | CCc1nc(-c2ccc(C)c(NC(=O)c3cnc4cc(-c5cscn5)ccn34)c2)no1 [Compound I-720]
12 | ≤ 0.05 | Cc1ccc(-c2noc([C@H](C)O)n2)cc1NC(=O)c1cnc2cc(-c3cscn3)ccn12 [Compound I-721]
13 | 0.05 to 0.5 | Cc1ccn2c(C(=O)Nc3cc(-c4noc(-c5cccnc5)n4)ccc3C)cnc2c1 [Compound I-726]
14 | ≤ 0.05 | Cc1ccc(-c2noc(C3CC(O)C3)n2)cc1NC(=O)c1cnc2cc(-c3ccn(C)n3)ccn12 (stereo not shown) [Compound I-727]
15 | 0.05 to 0.5 | COCc1ccn2c(C(=O)Nc3cc(-c4noc(-c5cccnc5)n4)ccc3C)cnc2c1 [Compound I-732]
16 | ≤ 0.05 | CCc1nc(-c2ccc(C)c(NC(=O)c3cnc4cc(COC)ccn34)c2)no1 [Compound I-734]
17 | 0.5 to 5 | COCc1ccn2c(C(=O)Nc3cc(-c4noc(C(C)O)n4)ccc3C)cnc2c1 (stereo not shown) [Compound I-735]
18 | ≤ 0.05 | Cc1ccn2c(C(=O)Nc3cc(-c4noc(-c5ccccc5)n4)ccc3C)cnc2c1 [Compound I-736]
19 | ≤ 0.05 | CCc1nc(-c2ccc(C)c(NC(=O)c3cnc4cc(OC)ccn34)c2)no1 [Compound I-737]
20 | 0.05 to 0.5 | Cc1ccc(-c2noc(-c3cccnc3)n2)cc1NC(=O)c1cnc2ccccn12 [Compound I-738]
21 | ≤ 0.05 | CCc1nc(-c2ccc(C)c(NC(=O)c3cnc4cc(F)ccn34)c2)no1 [Compound I-739]
22 | 0.5 to 5 | Cc1ccc(-c2noc(C(C)O)n2)cc1NC(=O)c1cnc2cc(F)ccn12 (stereo not shown) [Compound I-741]
23 | 0.05 to 0.5 | COc1ccn2c(C(=O)Nc3cc(-c4noc(C(C)O)n4)ccc3C)cnc2c1 (stereo not shown) [Compound I-742]
24 | 0.5 to 5 | COc1ccn2c(C(=O)Nc3cc(-c4noc(-c5ccccc5)n4)ccc3C)cnc2c1 [Compound I-743]
25 | 0.5 to 5 | Cc1ccc(-c2ncon2)cc1NC(=O)c1cnc2cc(F)ccn12 [Compound I-744]
26 | ≤ 0.05 | COc1ccn2c(C(=O)Nc3cc(-c4noc(-c5cccnc5)n4)ccc3C)cnc2c1 [Compound I-745]
27 | 0.5 to 5 | Cc1ccc(-c2noc(C3CC(N)C3)n2)cc1NC(=O)c1cnc2cc(Cl)ccn12 (stereo not shown) [Compound I-746]
28 | 0.05 to 0.5 | Cc1ccc(-c2noc(C3CC(NC(=O)OC(C)(C)C)C3)n2)cc1NC(=O)c1cnc2cc(Cl)ccn12 (stereo not shown) [Compound I-747]
29 | ≤ 0.05 | Cc1ccn2c(C(=O)Nc3cc(-c4noc(CCC(C)(O)C(F)(F)F)n4)ccc3C)cnc2c1 (stereo not shown) [Compound I-752, 7-methyl-N-(2-methyl-5-(5-(4,4,4-trifluoro-3-hydroxy-3-methylbutyl)-1,2,4-oxadiazol-3-yl)phenyl)imidazo[1,2-a]pyridine-3-carboxamide]
30 | ≤ 0.05 | Cc1ccc(-c2noc(CC3COC3)n2)cc1NC(=O)c1cnc2cc(Cl)ccn12 [Compound I-753, 7-Chloro-N-[2-methyl-5-[5-(oxetan-3-ylmethyl)-1,2,4-oxadiazol-3-yl]phenyl]imidazo[1,2-a]pyridine-3-carboxamide]
31 | ≤ 0.05 | CCc1nc(-c2ccc(C)c(NC(=O)c3cnc4cc(COCCO)ccn34)c2)no1 [Compound I-754]

tested on: not listed separately; assay: Kinetic solubility assay; assay type: physicochemical; conditions: kinetic solubility, 50 mM PB (pH 7.4), shaken 24 hours at RT
Protocol: 10 μL of 10 mM in DMSO of test article and control compounds was added into lower chambers of whatman miniuniprep vials, respectively. 490 μL of 50 mM PB (pH 7.4) was then added into lower chambers of the whatman miniuniprep vials, respectively. […] Miniuniprep vials were shaken for 24 hours at RT at the speed of 800 rpm, centrifuged 20 minutes (eg. 4000 rpm) and the filtrates were analyzed by UPLC-UV/HPLC-UV system to calculate the concentration with standard curve.
Filter Membrane: Miniuniprep (PTFE Filter Media with Polypropylene Housing) Cat. No. UN203NPUORG, GE Halthcare Whatman.

Row | Structure (SMILES) | Solubility (μM)
32 | Cc1ccc(-c2noc(C3CC3F)n2)cc1NC(=O)c1cnc2cc(CNC(=O)C3CCCO3)ccn12 (mixture of isomers) [I-33] | *** (a solubility greater than 2 μM and less than or equal to 10 μM)
33 | Cc1ccc(-c2noc(CC(O)C(F)F)n2)cc1NC(=O)c1cnc2cc(OC(F)(F)F)ccn12 (single isomer, unassigned) [I-13] | **** (a solubility less than or equal to 2 μM)
34 | COc1ccn2c(C(=O)Nc3cccc(-c4noc(CC5CC5(F)F)n4)c3F)cnc2c1 (single isomer, unassigned) [I-54] | **** (a solubility less than or equal to 2 μM)
35 | O=C(Nc1cc(-c2noc(CC(O)C(F)F)n2)ccc1Cl)c1cnc2ccccn12 (single isomer, unassigned) [I-61] | **** (a solubility less than or equal to 2 μM)
36 | O=C(Nc1cc(-c2noc(CC(O)C(F)F)n2)ccc1Cl)c1cnc2ccccn12 (single isomer, unassigned) [I-62] | **** (a solubility less than or equal to 2 μM)
37 | COc1ccc2ncc(C(=O)Nc3cc(-c4noc(CC(O)C(F)F)n4)ccc3C)n2c1 (single isomer, unassigned) [I-65] | **** (a solubility less than or equal to 2 μM)
38 | COc1ccc2ncc(C(=O)Nc3cc(-c4noc(CC(O)C(F)F)n4)ccc3C)n2c1 (single isomer, unassigned) [I-66] | **** (a solubility less than or equal to 2 μM)
39 | Cc1ccc(-c2noc(CC(O)C(F)(F)F)n2)cc1NC(=O)c1cnc2ccccn12 (single isomer, unassigned) [I-67] | **** (a solubility less than or equal to 2 μM)
40 | Cc1ccc(-c2noc(CC(O)C(F)(F)F)n2)cc1NC(=O)c1cnc2ccccn12 (single isomer, unassigned) [I-68] | **** (a solubility less than or equal to 2 μM)
41 | Cc1ccc(-c2noc(CC(O)C(F)F)n2)cc1NC(=O)c1cnc2cc(C(F)F)ccn12 (single isomer, unassigned) [I-70] | **** (a solubility less than or equal to 2 μM)
42 | Cc1noc(-c2ccc3ncc(C(=O)Nc4cc(-c5noc([C@H]6C[C@@H]6F)n5)ccc4C)n3c2)n1 [I-2] | **** (a solubility less than or equal to 2 μM)
43 | Cc1ccc(-c2noc([C@H]3C[C@@H]3F)n2)cc1NC(=O)c1cnc2cc(C(=O)N3CCCC3)ccn12 [I-3] | *** (a solubility greater than 2 μM and less than or equal to 10 μM)
44 | Cc1ccc(-c2noc([C@H]3C[C@@H]3F)n2)cc1NC(=O)c1cnc2ccc(N3CCCC3=O)cn12 [I-4] | **** (a solubility less than or equal to 2 μM)
45 | Cc1ccc(-c2noc([C@H]3C[C@@H]3F)n2)cc1NC(=O)c1cnc2ccc(CNS(=O)(=O)C3CC3)cn12 [I-5] | **** (a solubility less than or equal to 2 μM)
46 | Cc1ccc(-c2noc([C@H]3C[C@@H]3F)n2)cc1NC(=O)c1cnc2cc(CNC(=O)CO)ccn12 [I-7] | **** (a solubility less than or equal to 2 μM)
47 | Cc1ccc(-c2noc([C@H]3C[C@@H]3F)n2)cc1NC(=O)c1cnc2ccc(CNC(=O)CO)cn12 [I-8] | **** (a solubility less than or equal to 2 μM)
48 | CC(=O)NCc1ccc2ncc(C(=O)Nc3cc(-c4noc([C@H]5C[C@@H]5F)n4)ccc3C)n2c1 [I-9] | **** (a solubility less than or equal to 2 μM)
49 | Cc1ccc(-c2noc([C@H]3C[C@@H]3F)n2)cc1NC(=O)c1cnc2cc(CNS(=O)(=O)C3CC3)ccn12 [I-10] | **** (a solubility less than or equal to 2 μM)
50 | Cc1ccc(-c2noc([C@H]3C[C@@H]3F)n2)cc1NC(=O)c1cnc2ccc(CS(C)(=O)=O)cn12 [I-12] | **** (a solubility less than or equal to 2 μM)
51 | Cc1ccc(-c2noc([C@H]3C[C@@H]3F)n2)cc1NC(=O)c1cnc2cc(N3CCCC3=O)ccn12 [I-14] | **** (a solubility less than or equal to 2 μM)
52 | Cc1ccc(-c2noc([C@H]3C[C@@H]3F)n2)cc1NC(=O)c1cnc2ccc(CC#N)cn12 [I-15] | **** (a solubility less than or equal to 2 μM)
53 | Cc1ccc(-c2noc([C@H]3C[C@@H]3F)n2)cc1NC(=O)c1cnc2cc(CC#N)ccn12 [I-16] | **** (a solubility less than or equal to 2 μM)
54 | Cc1ccc(-c2noc([C@H]3C[C@@H]3F)n2)cc1NC(=O)c1cnc2cc(CNS(C)(=O)=O)ccn12 [I-17] | **** (a solubility less than or equal to 2 μM)
55 | Cc1ccc(-c2noc([C@H]3C[C@@H]3F)n2)cc1NC(=O)c1cnc2ccc(S(C)(=O)=O)cn12 [I-18] | **** (a solubility less than or equal to 2 μM)
56 | Cc1ccc(-c2noc([C@H]3C[C@@H]3F)n2)cc1NC(=O)c1cnn2cc(OC(F)(F)F)ccc12 [I-19] | **** (a solubility less than or equal to 2 μM)
57 | Cc1ccc(-c2noc(C3COC3)n2)cc1NC(=O)c1cnn2cc(C(F)F)ccc12 [I-20] | **** (a solubility less than or equal to 2 μM)
58 | COc1ccc2c(C(=O)Nc3cc(-c4noc([C@H]5C[C@@H]5F)n4)ccc3C)cnn2c1 [I-21] | **** (a solubility less than or equal to 2 μM)
